From patent US20240115647A1, “COMPOSITION COMPRISING FLAVANOL MONOMERS AND E-VINIFERIN” (ACTIV'INSIDE, priority 2020, published 2024)

System: tyrosinase
Assay: tyrosinase activity, colorimetric reaction with L-DOPA substrate (absorbance 475 nm)
Type: biochemical
Experimental: The aim of this test is to model the activity of an enzyme, tyrosinase (the enzyme responsible for melanin formation) using an experimental design and to determine the influence of flavanol monomers and ε-viniferin on enzymatic activity with respect to a specific substrate (L-DOPA). Tyrosinase activity was measured in vitro using a colorimetric reaction. Under the action of tyrosinase, L-DOPA is oxidized and converted into dopaquinone. The formation of dopaquinone can thus be monitored by spectrometry at 475 nm.
In a 96-well plate, the following amounts were deposited in each well: 80 μl phosphate buffer (50 mM), 40 μl of sample to be tested or buffer, 40 μl of tyrosinase at 125 U/ml. At the last moment, 40 μl of L-DOPA (2.5 mM) was added to initiate the reaction and then absorbance at 475 nm was monitored for 25 min.
For each well, the absorbance values over time (Ax) are normalized relative to the first absorbance measurement (AT0) according to the following formula: Normalized absorbance (An)=Ax−AT0. The normalized absorbances are then corrected (for each time) according to the following formula: Corrected normalized absorbance (Anc)=An−ACLT, where ACLT is the value of the normalized absorbance of the reagents in the presence of the sample (buffer+tyrosinase+sample). […]
To this end, tyrosinase activity was monitored and measured in vitro using the colorimetric reaction described above. […]

## Oc1ccc(/C=C/c2cc(O)cc3c2[C@@H](c2cc(O)cc(O)c2)[C@H](c2ccc(O)cc2)O3)cc1 [ε-viniferin]
Experimental design: flavanol monomers 1-50 μM, ε-viniferin 0.0050-0.05 μM, response at 7 min
  effect on tyrosinase activity with respect to the L-DOPA substrate: no significant effect
linear-quadratic model, central composite design, negative = reduces tyrosinase activity
  Estimated Coefficient (coded factors) of the model of corrected normalized absorbance: −0.0045
